Measured values reported in patent US7265107B2, “Rifamycin C-11 oxime cyclo derivatives effective against drug-resistant microbes” (Cumbre Pharmaceuticals Inc., priority 2004, dated 2007).
Values after ≈ are worked out from the molar mass of the structure shown. Where two headings read alike, the source gives them in different places.

Columns and labels:
Format in all cases: cell-based
[1] = test system: Haemophilus influenzae ATCC10211; settings: rifS, BHI Broth with NAD and hematin, 37° C., read-out: Antimicrobial activity (MIC)
[2] = test system: Staphylococcus aureus EN1252a gvrA^S84L grlA^S80F; assay: microbe, parasite or virus in culture; settings: read-out: Antimicrobial activity (MIC)
Protocol: (§1) Representative compounds were assayed for antimicrobial activity as follows: Minimum Inhibitory Concentrations (“MICs”) were determined by the microbroth dilution method as per NCCLS guidelines (National Committee for Clinical Laboratory Standards. 2000. Methods for dilution antimicrobial susceptibility tests for bacteria that grow aerobically, 5th ed. M7-A5. National Committee for Clinical Laboratory Standards, Wayne, Pa.), except that all growth incubations were conducted at 37° C. Bacterial cultures were tested in the following bacteriological media: S. aureus, S. epidermidis, and E. coli in Cation-Adjusted Mueller-Hinton Broth, S. pneumoniae in THY Broth supplemented with 1 mg/mL catalase under 5% CO2 atmosphere, S. pyogenes in THY Broth, E. faecalis in BHI Broth, H. influenzae in BHI Broth supplemented with 0.75 μL of 1 mg/mL NAD and 150 μL of 1 mg/ml hematin per 5 mL, and M. smegmatis in Middlebrook Broth plus ADC Enrichment.
S. aureus EN1252a gyrA^S84L grlA^S80F is a quinolone-resistant strain due to double mutations to the genes confer DNA gyrase and topoisomerase IV.

[3] = test system: Streptococcus pneumoniae ATCC6303; settings: rifS, THY Broth with 1 mg/mL catalase, 5% CO2, 37° C., read-out: Antimicrobial activity (MIC)
[4] = test system: Enterococcus faecalis ATCC29212; settings: rifS, BHI Broth, 37° C., read-out: Antimicrobial activity (MIC)
[5] = MIC, microbroth dilution, panel of rifampin-susceptible Gram-positive strains; settings: across the five rifampin-susceptible Gram-positive strains
Protocol: as §1
S. aureus ATCC […], S. epidermidis ATCC 12228, S. pneumoniae ATCC6303, S. pyogenes ATCC 19615 and E. faecalis ATCC 29212 are rifampin-susceptible Gram-positive strains. […] The compounds of the current invention show further improved activity against these strains with MICs as low as 0.0005 μg/ml.

[6] = test system: Streptococcus pyogenes ATCC19615; settings: rifS, THY Broth, 37° C., read-out: Antimicrobial activity (MIC)
[7] = cipR, Cation-Adjusted Mueller-Hinton Broth, 37° C.

| Structure (SMILES) | MIC [1] [ng/mL] | MIC [2, 7] [ng/mL] | MIC [3] [ng/mL] | MIC [4] [ng/mL] | MIC [5] [ng/mL] | MIC [2] [ng/mL] | MIC [6] [ng/mL] |
| --- | --- | --- | --- | --- | --- | --- | --- |
| CO[C@H]1/C=C/O[C@@]2(C)Oc3c(C)c(O)c4c(=O)c(c5oc6cc(N7CCN(CCOCCO)CC7)cc(O)c6nc-5c4c3/C2=N/O)NC(=O)/C(C)=C\C=C\[C@H](C)[C@H](O)[C@@H](C)[C@@H](O)[C@@H](C)[C@H](OC(C)=O)[C@@H]1C [Example 17, 11-Deoxy-11-hydroxyimino-1′,4-didehydro-1-deoxy-1,4-dihydro-3′-hydroxy-5′-{4-[2-(2-hydroxy-ethoxy)-ethyl]-piperazin-1-yl}-1-oxo-rifamycin VIII] | 125 to 8000 (≈ 127 to 8100 nM) | 0.5 to 125 (≈ 0.506 to 127 nM) | 0.06 to 31 (≈ 0.0607 to 31.4 nM) | 500 to 31200 (≈ 506 to 31600 nM) | – | – | – |
| CO[C@H]1/C=C/O[C@@]2(C)Oc3c(C)c(O)c4c(=O)c(c5oc6cc(N(CCO)CCO)cc(O)c6nc-5c4c3/C2=N/O)NC(=O)/C(C)=C\C=C\[C@H](C)[C@H](O)[C@@H](C)[C@@H](O)[C@@H](C)[C@H](OC(C)=O)[C@@H]1C [Example 18, 11-Deoxy-11-hydroxyimino-1′,4-didehydro-1-deoxy-1,4-dihydro-3′-hydroxy-5′-[bis-(2-hydroxy-ethyl)-amino]-1-oxo-rifamycin VIII] | 125 to 8000 (≈ 136 to 8710 nM) | 0.5 to 125 (≈ 0.544 to 136 nM) | 0.06 to 31 (≈ 0.0653 to 33.7 nM) | 500 to 31200 (≈ 544 to 34000 nM) | – | – | – |
| CO[C@H]1/C=C/O[C@@]2(C)Oc3c(C)c(O)c4c(=O)c(c5oc6cc(N7CCN(C)CC7)cc(C)c6nc-5c4c3/C2=N/O)NC(=O)/C(C)=C\C=C\[C@H](C)[C@H](O)[C@@H](C)[C@@H](O)[C@@H](C)[C@H](OC(C)=O)[C@@H]1C [Example 19, 11-Deoxy-11-hydroxyimino-1′,4-didehydro-1-deoxy-1,4-dihydro-3′-methyl-5′-(4-methyl-1-piperazinyl)-1-oxo-rifamycin VIII] | 125 to 8000 (≈ 137 to 8770 nM) | 0.5 to 125 (≈ 0.548 to 137 nM) | 0.06 to 31 (≈ 0.0658 to 34 nM) | 500 to 31200 (≈ 548 to 34300 nM) | – | – | – |
| CO[C@H]1/C=C/O[C@@]2(C)Oc3c(C)c(O)c4c(=O)c(c5oc6cc(N7CCN(CC(C)C)CC7)ccc6nc-5c4c3/C2=N/O)NC(=O)/C(C)=C\C=C\[C@H](C)[C@H](O)[C@@H](C)[C@@H](O)[C@@H](C)[C@H](OC(C)=O)[C@@H]1C [Example 20, 11-Deoxy-11-hydroxyimino-1′,4-didehydro-1-deoxy-1,4-dihydro-5′-(4-isobutyl-1-piperazinyl)-1-oxo-rifamycin VIII] | 125 to 8000 (≈ 133 to 8510 nM) | 0.5 to 125 (≈ 0.532 to 133 nM) | 0.06 to 31 (≈ 0.0638 to 33 nM) | 500 to 31200 (≈ 532 to 33200 nM) | – | – | – |
| CO[C@H]1/C=C/O[C@@]2(C)Oc3c(C)c(O)c4c(c3/C2=N/OCC(=O)O)C2=NC3(CCN(CC(C)C)CC3)NC2=C(NC(=O)/C(C)=C\C=C\[C@H](C)[C@H](O)[C@@H](C)[C@@H](O)[C@@H](C)[C@H](OC(C)=O)[C@@H]1C)C4=O [Example 21, 11-Deoxy-11-(4-carboxymethoxyimino)-1′,4-didehydro-1-deoxy-1,4-dihydro-5′-(2-methylpropyl)-1-oxo-rifamycin XIV] | 125 to 8000 (≈ 136 to 8690 nM) | 0.5 to 125 (≈ 0.543 to 136 nM) | 0.06 to 31 (≈ 0.0652 to 33.7 nM) | 500 to 31200 (≈ 543 to 34000 nM) | – | – | – |
| COc1c(N2CCN(C(=O)CO/N=C3/c4c5c(C)c(O)c6c4C4=NC7(CCN(CC(C)C)CC7)NC4=C(NC(=O)/C(C)=C\C=C\[C@H](C)[C@H](O)[C@@H](C)[C@@H](O)[C@@H](C)[C@H](OC(C)=O)[C@H](C)[C@@H](OC)/C=C/O[C@@]3(C)O5)C6=O)C(C)C2)c(F)cc2c(=O)c(C(=O)O)cn(C3CC3)c12 (stereo partly drawn) [Example 22, 11-Deoxy-11-{2-oxo-2-[2-methyl4-(3-carboxy-1-cyclopropl-2-methoxy-6-fluoro-4-oxo-1,4-dihydroquinolin-7-yl)piperazin-1-yl]ethoxyimino}-1′,4-didehydro-1-deoxy-1,4-dihydro-5′-(2-methylpropyl)-1-oxo-rifamycin XIV] | 125 to 8000 (≈ 97.9 to 6260 nM) | 0.5 to 125 (≈ 0.391 to 97.9 nM) | 0.06 to 31 (≈ 0.047 to 24.3 nM) | 500 to 31200 (≈ 391 to 24500 nM) | – | – | – |
| CO[C@H]1/C=C/O[C@@]2(C)Oc3c(C)c(O)c4c(O)c(c(/C=N/N5CCN(C)CC5)c(O)c4c3C2=O)NC(=O)/C(C)=C\C=C\[C@H](C)[C@H](O)[C@@H](C)[C@@H](O)[C@@H](C)[C@H](OC(C)=O)[C@@H]1C [rifampin, reference compound] | 240 (≈ 292 nM) | – | 61 (≈ 74.1 nM) | 1000 (≈ 1220 nM) | 13 to 1000 (≈ 15.8 to 1220 nM) | 4 (≈ 4.86 nM) | 13 (≈ 15.8 nM) |
